Experiment [1] addresses T1, human ABCG5-ABCG8 heterodimer (G5G8) (Homo sapiens, UniProt Q9H221+Q9H222).
T1 construct: heterodimer; HEK-293S GnTI- or Pichia pastoris
T1 sequence (Q9H222 1-651): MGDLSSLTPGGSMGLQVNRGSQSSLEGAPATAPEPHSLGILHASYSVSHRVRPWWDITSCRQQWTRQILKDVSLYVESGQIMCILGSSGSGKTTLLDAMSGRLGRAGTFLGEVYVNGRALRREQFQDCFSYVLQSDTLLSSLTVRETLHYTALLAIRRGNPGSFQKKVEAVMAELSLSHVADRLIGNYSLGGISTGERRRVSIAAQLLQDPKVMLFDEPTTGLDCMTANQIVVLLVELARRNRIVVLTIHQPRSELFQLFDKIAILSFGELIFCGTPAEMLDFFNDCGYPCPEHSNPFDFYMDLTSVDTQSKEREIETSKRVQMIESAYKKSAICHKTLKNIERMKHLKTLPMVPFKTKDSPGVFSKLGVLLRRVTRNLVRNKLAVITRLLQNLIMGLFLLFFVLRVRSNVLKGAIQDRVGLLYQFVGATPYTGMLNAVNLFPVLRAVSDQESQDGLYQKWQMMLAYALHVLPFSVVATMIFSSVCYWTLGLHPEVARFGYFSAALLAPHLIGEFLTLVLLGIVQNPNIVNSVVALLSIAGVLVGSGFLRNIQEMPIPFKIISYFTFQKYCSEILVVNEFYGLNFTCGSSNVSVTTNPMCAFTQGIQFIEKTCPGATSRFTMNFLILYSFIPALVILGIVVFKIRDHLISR
T1 sequence (Q9H221 1-673): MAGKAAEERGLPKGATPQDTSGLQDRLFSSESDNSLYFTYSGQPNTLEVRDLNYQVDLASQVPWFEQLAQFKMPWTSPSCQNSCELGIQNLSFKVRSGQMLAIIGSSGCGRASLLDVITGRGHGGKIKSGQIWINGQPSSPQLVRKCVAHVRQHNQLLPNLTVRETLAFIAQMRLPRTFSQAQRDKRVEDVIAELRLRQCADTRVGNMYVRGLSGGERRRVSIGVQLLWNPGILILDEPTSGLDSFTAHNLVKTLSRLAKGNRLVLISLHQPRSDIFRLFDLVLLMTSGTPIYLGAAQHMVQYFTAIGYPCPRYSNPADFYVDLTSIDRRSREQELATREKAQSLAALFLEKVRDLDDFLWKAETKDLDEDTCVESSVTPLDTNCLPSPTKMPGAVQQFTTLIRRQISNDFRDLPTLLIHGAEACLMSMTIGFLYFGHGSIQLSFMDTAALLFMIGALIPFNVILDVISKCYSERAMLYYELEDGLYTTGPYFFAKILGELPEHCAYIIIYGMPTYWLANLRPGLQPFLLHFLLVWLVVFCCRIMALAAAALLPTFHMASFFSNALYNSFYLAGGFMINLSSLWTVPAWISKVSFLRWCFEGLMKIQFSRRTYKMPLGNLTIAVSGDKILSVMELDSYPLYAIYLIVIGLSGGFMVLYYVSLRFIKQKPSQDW
The experiment in a line: […]phosphate release ATPase assay. Type of experiment: biochemical. Conditions: 2.5 mM gamma-[32P]ATP (labelled compound), 2.5 mM MgCl2, liver polar lipids, 1% sodium cholate, pH 7.5, 37 °C.

The target of another experiment is T2, human ABCG1 (G1) (Homo sapiens, UniProt P45844).
T2 construct: full-length cDNA, N-terminal Flag tag; homodimer; WT from Sf9, E242Q from HEK-293S GnTI-; LMNG then digitonin
The experiment in a line: NADH-coupled ATPase stimulation. Type of experiment: biochemical. Conditions: 0.25 mM cholesterol, 0.5-20 mM ATP, 2 mM MgCl2, pH 7.5, 37 °C.

SMILES strings stand for the structures.

For the molecule `Nc1ncnc2c1ncn2[C@@H]1O[C@H](COP(=O)(O)OP(=O)(O)OP(=O)(O)O)[C@@H](O)[C@H]1O` [ATP], the “[32P]phosphate release ATPase assay” value in experiment [1] is reported as “The ATPase activity of purified G5G8 was determined as described”. In the case of `CC(C)CCC[C@@H](C)[C@H]1CC[C@H]2[C@@H]3CC=C4C[C@@H](O)CC[C@]4(C)[C@H]3CC[C@]12C` [cholesterol], on human ABCG1 (G1), the ATPase stimulation entry is listed as “ATPase activity was stimulated by cholesterol but not its diastereomer, epi-cholesterol”.

Source of the values: publication PMC8403869 (Proceedings of the National Academy of Sciences of the …, 2021).
